Assay results published in patent US11066638B2 (priority 2016, dated 2021).
Values after ≈ are worked out from the molar mass of the structure shown. Like-named read-outs stand apart in the source and are kept apart here.

Tests used:
Listeria monocytogenes [1] = conditions: for colony formation of bacterial ghosts plated on BHI agar media: MIC
Description: Specifically, a BHI liquid medium was inoculated with Listeria, and incubated for 72 hours. After incubation, centrifugation was performed at 10,000 g for 10 minutes to obtain the cultured Listeria. […] Listeria was obtained at 15, 30, 45, 60 and 90 minutes after the beginning of culture and the lysis rate was measured.

Listeria monocytogenes [2] = conditions: 18 hours
Listeria monocytogenes [3] = assay: microbe, parasite or virus in culture; conditions: 18 h, read-out: minimum inhibitory concentration (MIC)
Description: (§1) Specifically, Listeria monocytogenes, a gram-positive bacterium, was cultured in a brain-heart infusion (BHI) medium at 7° C. and 200 rpm under shaking conditions overnight, and then the degree of bacterial growth was determined by measuring optical density at 600 nm using a Biochrom Libra S22 spectrophotometer.

Listeria monocytogenes [4] = conditions: BHI liquid medium, 10^6 CFU/ml, 37° C., 18 hours, optical density at 600 nm
Description: as §1

[5] = treated with 6.25 mg/ml (MIC), plated without dilution, 37° C.

| SMILES | colony formation of bacterial ghosts plated on BHI agar media (Listeria monocytogenes [1]; ghosts prepared from 15 minutes after treatment) | lysis rate of gram-positive bacteria (Listeria monocytogenes [1]; at about 15 minutes after the MIC has been applied) [%] | colony formation on BHI agar medium (Listeria monocytogenes [2]; treated with 3.125 mg/ml, diluted to a dilution factor of 1/10, 37° C.) | colony formation on BHI agar medium (Listeria monocytogenes [2]; [5]) | MIC (Listeria monocytogenes [3]) [µg/mL] | time to formation of bacterial ghosts after treatment (Listeria monocytogenes [1]; MIC 6.25 mg/ml, 37° C., 10^6 CFU/ml Listeria in PBS) | colony formation of bacterial ghosts plated on BHI agar media (Listeria monocytogenes [1]; ghosts prepared from 10 minutes after treatment) | minimum inhibitory concentration (MIC) (Listeria monocytogenes [4]) [µg/mL] | colony formation on BHI agar medium (Listeria monocytogenes [2]; treated with 3.125 mg/ml, plated without dilution, 37° C.) |
| --- | --- | --- | --- | --- | --- | --- | --- | --- | --- |
| Cl [hydrochloric acid] | colonies were not formed | 100 | tens of colonies were also formed | no viable colony was formed | 6250 (≈ 171 mM) |  |  |  |  |
| [Na+].[OH-] [sodium hydroxide] |  |  |  | no viable colony was formed |  | about 10 minutes | colonies were not formed | 6250 | thousands of colonies were formed |
